Data as given in patent US20210244686A1, “Novel Systems And Methods For The Therapeutic Use of Cannabinoids or Cannabinoid Analogs to Increase The Lipid Order of Cholesterol Containing Cell Membranes” (The Regents of the University of Colorado a body corporate, priority 2018, published 2021).

Legend:
SK-N-BE(2) cells [1] = experiment: 13C glucose labelled lipidomics of cholesterol biosynthesis; assay type: cell-based, human; settings: 20 μM CBD, 24 hours
Procedure: These findings raise the question of whether CBD treatment leads to alterations in lipid and cholesterol metabolism (the latter pathway depicted in FIG. 3A). The present inventors used mass spectrometry-based lipidomics, a subset of metabolomics, to quantify the effect of CBD on the fluxes of key lipids and sterols. Vehicle and CBD exposed cells were fed ^13C labeled glucose for 24 hours and harvested using methanol extraction and mass spectrometry analysis. Cholesterol biosynthesis was analyzed by determining the level of incorporation of ^13C into biosynthetic intermediates. […] The effect of CBD on total cellular cholesterol was confirmed using a fluorogenic assay for cholesterol in an orthogonal experiment (FIG. 11B).
Cultured cells were harvested, washed with PBS, flash frozen, and stored at −80 C. until analysis. Prior to LC-MS analysis, samples were placed on ice and re-suspended with methanol:acetonitrile:water (5:3:2, v/v/v) at a concentration of 2 million cells per ml. Suspensions were vortexed continuously for 30 min at 4° C. Insoluble material was removed by centrifugation at 10,000 g for 10 min at 4° C. and supernatants were isolated for metabolomics analysis by UHPLC-MS. This method was used for cholesterol precursors and free headgroups. […]

SK-N-BE(2) cells [2] = experiment: Live cell confocal microscopy of lipid droplets (NBD-cholesterol, nile red); assay type: cell-based, human; settings: CBD 20 μM, 24 hrs
Text: Thus, the present inventors found multiple lines of evidence consistent with activation of cholesterol esterification in the CBD response. To further support the claim that CBD elicits cholesterol storage, the present inventors used live cell confocal microscopy of SK-N-BE(2) cells stained with both fluorescent cholesterol (22-NBD-Cholesterol) and the lipid droplet dye nile red (FIG. 4E) to quantify the number and size of lipid droplets. […] Altogether, these combined experiments highlight that the CBD response in cells includes activation of cholesterol esterification and storage.
SK-N-BE(2) cells were seeded into fibronectin coated glass bottom 96 well plates (Matriplate) at a cell density of 40,000 cells/well using low background imaging media (FluoroBrite DMEM with all supplements described, above). At the time of seeding, nile red (ThermoFisher) was added at a final concentration of 100 ng/mL and NBD-cholesterol (ThermoFisher) was added at a final concentration of 10 μg/mL. […] Lipid droplets and their sizes were detected and quantified using the ImageJ Find Particles Function, and data was subsequently processed using Microsoft Excel. Error depicted represents the standard deviation calculated from three biological replicates. […]

HEK293T cells = experiment: Live cell microscopy apoptosis assay (caspase 3/7 dye); assay type: cell-based; settings: DHA 75 μM with MBCD 300 μM or CBD 6.25 μM
Procedure: In order to gain further insight into the sensitivity of CBD treated cells to 25-hydroxy cholesterol, the present inventors repeated the apoptosis assay in SK-N-BE(2) and HEK293T cells with combinatorial 25-hydroxy cholesterol/CBD stimulation using sublethal doses of 25-hydroxy cholesterol (15 μg/ml) and CBD (20 μM) in the presence or absence of either the chemical inhibitor of cholesterol transport (U18666A, 10 μM) or cholesterol storage (VULM 1457, 5 μM).
FRAP experiments reveal that DHA and CBD have opposing effects on the lateral diffusion of fluorescently labelled cholesterol in synthetic membranes. Although this implies that CBD increases lipid order and that DHA decreases lipid order, it remains unclear how relevant these biophysical effects of CBD and DHA are to cellular physiology. As a result, the present inventors sought to determine whether CBD and DHA have opposing effects on cells. To this end, the present inventors repeated the live cell apoptosis assays in cells exposed to increasing doses of DHA to determine how DHA affects cell death.

For `C=C(C)[C@@H]1CCC(C)=C[C@H]1c1c(O)cc(CCCCC)cc1O` [CBD, cannabidiol], the “labeled and total cholesterol” value (SK-N-BE(2) cells [1]) was “decrease”, the “total and isotopically-labeled levels of cholesterol precursors” value (SK-N-BE(2) cells [1]) was “accumulate” and the “average abundance of lipid droplets” value (SK-N-BE(2) cells [2]) was “increases”. For the same compound, the lipid droplet size (SK-N-BE(2) cells [2]) was “does not affect” and the “effect on DHA induced apoptosis” value (HEK293T cells) was “completely cancel the apoptotic effects”.
